From patent publication US20250059171A1 (Hoffmann-La Roche Inc., priority 2021, published 2025)

How the values were obtained:
[1] = target: HCoV-229E 3CLpro (Human coronavirus 229E, UniProt P0C6X1); assay: HCoV-229E 3CLpro inhibition assay (FRET); format: biochemical
[2] = target: MERS-CoV 3CLpro (Middle East respiratory syndrome-related coronavirus, UniProt K9N7C7); assay: biochemical
[3] = target: SARS-CoV-2 3CLpro (Severe acute respiratory syndrome coronavirus 2, UniProt P0DTD1); assay: biochemical
[4] = target: SARS-CoV 3CLpro (Severe acute respiratory syndrome coronavirus, UniProt P0C6X7); assay: biochemical

Chain of MERS-CoV 3CLpro (K9N7C7 3248-3553): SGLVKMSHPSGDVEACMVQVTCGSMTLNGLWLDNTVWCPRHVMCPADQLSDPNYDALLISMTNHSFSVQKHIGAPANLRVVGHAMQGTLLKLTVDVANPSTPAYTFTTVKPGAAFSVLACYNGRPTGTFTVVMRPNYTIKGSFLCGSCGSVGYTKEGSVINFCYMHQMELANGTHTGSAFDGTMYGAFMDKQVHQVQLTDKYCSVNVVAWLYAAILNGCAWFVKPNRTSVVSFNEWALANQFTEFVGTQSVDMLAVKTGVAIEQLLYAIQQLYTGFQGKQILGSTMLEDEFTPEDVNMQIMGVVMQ
Chain of HCoV-229E 3CLpro (P0C6X1 2966-3267): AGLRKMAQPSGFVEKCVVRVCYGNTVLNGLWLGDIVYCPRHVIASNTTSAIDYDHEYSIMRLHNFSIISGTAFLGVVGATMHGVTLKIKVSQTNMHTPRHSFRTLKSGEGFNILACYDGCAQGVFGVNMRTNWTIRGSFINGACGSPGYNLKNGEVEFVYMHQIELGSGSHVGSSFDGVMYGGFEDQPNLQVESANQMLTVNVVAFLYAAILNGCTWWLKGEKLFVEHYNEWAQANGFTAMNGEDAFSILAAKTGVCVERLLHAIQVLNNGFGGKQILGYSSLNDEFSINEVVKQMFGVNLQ

**Q.** Which IC50 [1] does the source give for `CC(C)(C)C(=O)N[C@H](C(=O)N1C[C@H]2[C@@H]([C@H]1C(=O)NN(C[C@@H]1CCNC1=O)C(=O)[C@H](F)Cl)C2(C)C)C(C)(C)C` [Example 11, N-[(1S)-1-[(1R,2S,5S)-2-[[[(2R)-2-chloro-2-fluoro-acetyl]-[[(3S)-2-oxopyrrolidin-3-yl]methyl]amino]carbamoyl]-6,6-dimethyl-3-azabicyclo[3.1.0]hexane-3-carbonyl]-2,2-dimethyl-propyl]-2,2-dimethyl-propanamide] here?
**A.** 56 nM

**Q.** And the IC50 [2]?
**A.** 260 nM

**Q.** And the IC50 [3]?
**A.** 218 nM

**Q.** And the IC50 [4]?
**A.** 34 nM

**Q.** Which results are given for `CC(C)(C)[C@H](NC(=O)C1CC1)C(=O)N1C[C@H]2[C@@H]([C@H]1C(=O)NN(C[C@@H]1CCNC1=O)C(=O)[C@H](F)Cl)C2(C)C` [Example 12, N-[(1S)-1-[(1R,2S,5S)-2-[[[(2R)-2-chloro-2-fluoro-acetyl]-[[(3S)-2-oxopyrrolidin-3-yl]methyl]amino]carbamoyl]-6,6-dimethyl-3-azabicyclo[3.1.0]hexane-3-carbonyl]-2,2-dimethyl-propyl]cyclopropanecarboxamide]?
**A.** IC50 [1]: 26 nM; IC50 [2]: 106 nM; IC50 [3]: 15 nM; IC50 [4]: 17 nM

**Q.** For `CC(C)C(=O)N[C@H](C(=O)N1C[C@H]2[C@@H]([C@H]1C(=O)NN(C[C@@H]1CCNC1=O)C(=O)[C@H](F)Cl)C2(C)C)C(C)(C)C` [Example 13, N-[(1S)-1-[(1R,2S,5S)-2-[[[(2R)-2-chloro-2-fluoro-acetyl]-[[(3S)-2-oxopyrrolidin-3-yl]methyl]amino]carbamoyl]-6,6-dimethyl-3-azabicyclo[3.1.0]hexane-3-carbonyl]-2,2-dimethyl-propyl]-2-methyl-propanamide], which IC50 [1] is on record?
**A.** 24 nM

**Q.** And the IC50 [2]?
**A.** 94 nM

**Q.** And the IC50 [3]?
**A.** 9 nM

**Q.** What about the IC50 [4] of the same molecule?
**A.** 14 nM

**Q.** For `CC(C)(C)[C@H](NC(=O)C(F)F)C(=O)N1C[C@H]2[C@@H]([C@H]1C(=O)NN(C[C@@H]1CCNC1=O)C(=O)[C@H](F)Cl)C2(C)C` [Example 14, N-[(1S)-1-[(1R,2S,5S)-2-[[[(2R)-2-chloro-2-fluoro-acetyl]-[[(3S)-2-oxopyrrolidin-3-yl]methyl]amino]carbamoyl]-6,6-dimethyl-3-azabicyclo[3.1.0]hexane-3-carbonyl]-2,2-dimethyl-propyl]-2,2-difluoro-acetamide], which IC50 [1] is on record?
**A.** 36 nM

**Q.** And the IC50 [2]?
**A.** 121 nM

**Q.** What about the IC50 [3] of the same molecule?
**A.** 7 nM

**Q.** And the IC50 [4]?
**A.** 18 nM

**Q.** For `CC(C)(C)[C@H](NC(=O)C12CC(C1)C2)C(=O)N1C[C@H]2[C@@H]([C@H]1C(=O)NN(C[C@@H]1CCNC1=O)C(=O)[C@H](F)Cl)C2(C)C` [Example 15, N-[(1S)-1-[(1R,2S,5S)-2-[[[(2R)-2-chloro-2-fluoro-acetyl]-[[(3S)-2-oxopyrrolidin-3-yl]methyl]amino]carbamoyl]-6,6-dimethyl-3-azabicyclo[3.1.0]hexane-3-carbonyl]-2,2-dimethyl-propyl]bicyclo[1.1.1]pentane-1-carboxamide], which IC50 [1] is on record?
**A.** 55 nM

**Q.** And the IC50 [2]?
**A.** 204 nM

**Q.** What about the IC50 [3] of the same molecule?
**A.** 8 nM

**Q.** What about the IC50 [4] of the same molecule?
**A.** 26 nM

**Q.** Which IC50 [1] does the source give for `CC(C)(C)[C@H](NC(=O)c1cc(C(F)(F)F)on1)C(=O)N1C[C@H]2[C@@H]([C@H]1C(=O)NN(C[C@@H]1CCNC1=O)C(=O)[C@H](F)Cl)C2(C)C` [Example 16, N-[(1S)-1-[(1R,2S,5S)-2-[[[(2R)-2-chloro-2-fluoro-acetyl]-[[(3S)-2-oxopyrrolidin-3-yl]methyl]amino]carbamoyl]-6,6-dimethyl-3-azabicyclo[3.1.0]hexane-3-carbonyl]-2,2-dimethyl-propyl]-5-(trifluoromethyl)isoxazole-3-carboxamide] here?
**A.** 159 nM

**Q.** And the IC50 [2]?
**A.** 430 nM

**Q.** What about the IC50 [3] of the same molecule?
**A.** 20 nM

**Q.** And the IC50 [4]?
**A.** 357 nM

**Q.** `CC(C)(C)[C@H](NC(=O)C(F)(F)F)C(=O)N1C[C@H]2[C@@H]([C@H]1C(=O)NN(C[C@@H]1CCNC1=O)C(=O)[C@@H](F)Cl)C2(C)C` [Example 19, N-[(1S)-1-[(1R,2S,5S)-2-[[[(2S)-2-chloro-2-fluoro-acetyl]-[[(3S)-2-oxopyrrolidin-3-yl]methyl]amino]carbamoyl]-6,6-dimethyl-3-azabicyclo[3.1.0]hexane-3-carbonyl]-2,2-dimethyl-propyl]-2,2,2-trifluoro-acetamide] was tested. Which IC50 [1] did it give?
**A.** 27 nM

**Q.** And the IC50 [2]?
**A.** 92 nM

**Q.** What about the IC50 [3] of the same molecule?
**A.** 13 nM

**Q.** What about the IC50 [4] of the same molecule?
**A.** 15 nM

**Q.** For `CC1(C)[C@@H]2[C@@H](C(=O)NN(C[C@@H]3CCNC3=O)C(=O)[C@H](F)Cl)N(C(=O)[C@H](Cc3ccccc3)NC(=O)C(F)(F)F)C[C@@H]21` [Example 20, N-[(1S)-1-benzyl-2-[(1R,2S,5S)-2-[[[(2R)-2-chloro-2-fluoro-acetyl]-[[(3S)-2-oxopyrrolidin-3-yl]methyl]amino]carbamoyl]-6,6-dimethyl-3-azabicyclo[3.1.0]hexan-3-yl]-2-oxo-ethyl]-2,2,2-trifluoro-acetamide], which IC50 [1] is on record?
**A.** 47 nM

**Q.** What about the IC50 [2] of the same molecule?
**A.** 106 nM

**Q.** What about the IC50 [3] of the same molecule?
**A.** 14 nM

**Q.** What about the IC50 [4] of the same molecule?
**A.** 16 nM

**Q.** What does the source list for `CC1(C)[C@@H]2[C@@H](C(=O)NN(C[C@@H]3CCNC3=O)C(=O)[C@H](F)Cl)N(C(=O)[C@@H](NC(=O)C(F)(F)F)c3ccccc3)C[C@@H]21` [Example 21, N-[(1S)-2-[(1R,2S,5S)-2-[[[(2R)-2-chloro-2-fluoro-acetyl]-[[(3S)-2-oxopyrrolidin-3-yl]methyl]amino]carbamoyl]-6,6-dimethyl-3-azabicyclo[3.1.0]hexan-3-yl]-2-oxo-1-phenyl-ethyl]-2,2,2-trifluoro-acetamide]?
**A.** IC50 [1]: 34 nM; IC50 [2]: 109 nM; IC50 [3]: 25 nM; IC50 [4]: 17 nM

**Q.** Which IC50 [1] does the source give for `CC(C)(C)[C@H](NC(=O)C(F)(F)C(F)(F)F)C(=O)N1C[C@H]2[C@@H]([C@H]1C(=O)NN(C[C@@H]1CCNC1=O)C(=O)[C@H](F)Cl)C2(C)C` [Example 22, N-[(1S)-1-[(1R,2S,5S)-2-[[[(2R)-2-chloro-2-fluoro-acetyl]-[[(3S)-2-oxopyrrolidin-3-yl]methyl]amino]carbamoyl]-6,6-dimethyl-3-azabicyclo[3.1.0]hexane-3-carbonyl]-2,2-dimethyl-propyl]-2,2,3,3,3-pentafluoro-propanamide] here?
**A.** 76 nM

**Q.** What about the IC50 [2] of the same molecule?
**A.** 183 nM

**Q.** What about the IC50 [3] of the same molecule?
**A.** 8 nM

**Q.** What about the IC50 [4] of the same molecule?
**A.** 31 nM

**Q.** How did the IC50 [1] turn out when `CC(C)(C)[C@H](NC(=O)C(F)(F)F)C(=O)N1C[C@H](C(F)(F)F)C[C@H]1C(=O)NN(C[C@@H]1CCNC1=O)C(=O)[C@H](F)Cl` [Example 23, N-[(1S)-1-[(2S,4R)-2-[[[(2R)-2-chloro-2-fluoro-acetyl]-[[(3S)-2-oxopyrrolidin-3-yl]methyl]amino]carbamoyl]-4-(trifluoromethyl)pyrrolidine-1-carbonyl]-2,2-dimethyl-propyl]-2,2,2-trifluoro-acetamide] was run?
**A.** 21 nM

**Q.** And the IC50 [2]?
**A.** 65 nM

**Q.** What about the IC50 [3] of the same molecule?
**A.** 9 nM

**Q.** And the IC50 [4]?
**A.** 11 nM

**Q.** How did the IC50 [1] turn out when `CC1([C@H](NC(=O)C(F)(F)F)C(=O)N2CC3(CC3)C[C@H]2C(=O)NN(C[C@@H]2CCNC2=O)C(=O)[C@H](F)Cl)CC1` [Example 24, N-[(1S)-2-[(6S)-6-[[[(2R)-2-chloro-2-fluoro-acetyl]-[[(3S)-2-oxopyrrolidin-3-yl]methyl]amino]carbamoyl]-5-azaspiro[2.4]heptan-5-yl]-1-(1-methylcyclopropyl)-2-oxo-ethyl]-2,2,2-trifluoro-acetamide] was run?
**A.** 31 nM

**Q.** What about the IC50 [2] of the same molecule?
**A.** 114 nM

**Q.** What about the IC50 [3] of the same molecule?
**A.** 18 nM

**Q.** What about the IC50 [4] of the same molecule?
**A.** 13 nM

**Q.** How did the IC50 [1] turn out when `CC(C)C(=O)N[C@H](C(=O)N1CC2(CC2)C[C@H]1C(=O)NN(C[C@@H]1CCNC1=O)C(=O)[C@H](F)Cl)C(C)(C)C` [Example 25, N-[(1S)-1-[(6S)-6-[[[(2R)-2-chloro-2-fluoro-acetyl]-[[(3S)-2-oxopyrrolidin-3-yl]methyl]amino]carbamoyl]-5-azaspiro[2.4]heptane-5-carbonyl]-2,2-dimethyl-propyl]-2-methyl-propanamide] was run?
**A.** 127 nM

**Q.** And the IC50 [2]?
**A.** 408 nM

**Q.** What about the IC50 [3] of the same molecule?
**A.** 15 nM

**Q.** And the IC50 [4]?
**A.** 27 nM

**Q.** What does the source list for `CC1(C)C[C@@H](C(=O)NN(C[C@@H]2CCNC2=O)C(=O)[C@H](F)Cl)N(C(=O)[C@@H](NC(=O)C2CC2)C(C)(C)C)C1` [Example 26, N-[(1S)-1-[(2S)-2-[[[(2R)-2-chloro-2-fluoro-acetyl]-[[(3S)-2-oxopyrrolidin-3-yl]methyl]amino]carbamoyl]-4,4-dimethyl-pyrrolidine-1-carbonyl]-2,2-dimethyl-propyl]cyclopropanecarboxamide]?
**A.** IC50 [1]: 28 nM; IC50 [2]: 98 nM; IC50 [3]: 12 nM; IC50 [4]: 21 nM

**Q.** Which results are given for `C[C@H]1C[C@@H](C(=O)NN(C[C@@H]2CCNC2=O)C(=O)[C@H](F)Cl)N(C(=O)[C@@H](NC(=O)C(F)(F)F)C(C)(C)C)C1` [Example 27, N-[(1S)-1-[(2S,4S)-2-[[[(2R)-2-chloro-2-fluoro-acetyl]-[[(3S)-2-oxopyrrolidin-3-yl]methyl]amino]carbamoyl]-4-methyl-pyrrolidine-1-carbonyl]-2,2-dimethyl-propyl]-2,2,2-trifluoro-acetamide]?
**A.** IC50 [1]: 29 nM; IC50 [2]: 136 nM; IC50 [3]: 29 nM; IC50 [4]: 20 nM

**Q.** Which results are given for `CC(C)(C)[C@H](NC(=O)C(F)F)C(=O)N1C[C@@H]2CCC[C@@H]2[C@H]1C(=O)NN(C[C@@H]1CCNC1=O)C(=O)[C@H](F)Cl` [Example 28, N-[(1S)-1-[(3S,3aS,6aR)-3-[[[(2R)-2-chloro-2-fluoro-acetyl]-[[(3S)-2-oxopyrrolidin-3-yl]methyl]amino]carbamoyl]-3,3a,4,5,6,6a-hexahydro-1H-cyclopenta[c]pyrrole-2-carbonyl]-2,2-dimethyl-propyl]-2,2-difluoro-acetamide]?
**A.** IC50 [1]: 396 nM; IC50 [2]: 1020 nM; IC50 [3]: 8 nM; IC50 [4]: 38 nM

**Q.** What does the source list for `CC(=O)N[C@H](C(=O)N1C[C@@H]2CCC[C@@H]2[C@H]1C(=O)NN(C[C@@H]1CCNC1=O)C(=O)[C@H](F)Cl)C(C)(C)C` [Example 29, N-[(1S)-1-[(3S,3aS,6aR)-3-[[[(2R)-2-chloro-2-fluoro-acetyl]-[[(3S)-2-oxopyrrolidin-3-yl]methyl]amino]carbamoyl]-3,3a,4,5,6,6a-hexahydro-1H-cyclopenta[c]pyrrole-2-carbonyl]-2,2-dimethyl-propyl]acetamide]?
**A.** IC50 [1]: 28 nM; IC50 [2]: 68 nM; IC50 [3]: 10 nM; IC50 [4]: 11 nM
